# Key:
# cortical neurons [1] = assay: Cortical neuron survival assay against NMDA excitotoxicity (LDH); assay type: cell-based, Sprague-Dawley rats; details: 30 μM 24 hrs, NMDA 10-200 μM 20 min; at high concentrations of NMDA
# Protocol: FIG. 12. Derivatives of DA001 rescue the cortical neurons from NMDA excitotoxicity. Cortical neurons were treated with compounds derived from of DA001 (30 μM) 24 hours prior to NMDA treatment. LDH released into the medium were measured 24 hours after NMDA treatment. Data are expressed as mean±s.e.m. and compared to solvent control (DMSO). *=P<0.05.
# Hippocampal neurons/cortical neurons were prepared from embryonic day 18 Sprague-Dawley rats. […] Afterwards, cells were incubated in growth medium for 18-24 hours and detected with Cytotoxicity Detection Kit (1644793, Roche).
# Cortical neurons were treated with DA021 or DA034 and subsequently subjected to varying concentrations of NMDA. […] LDH release into the medium was then measured.
# Compounds with strong protective effect (>80% survival) against NMDA excitotoxicity are prototype DA001, derivatives DA010, DA021, DA034, DA040, DA081 and DA088. […] LDH released into the medium were measured 24 hours after NMDA treatment. Data are expressed as averaged percentage of cell survival (±s.e.m) calculated against solvent control (DMSO) and compared to no NMDA control (set as 100% survival). […]
# cortical neurons [2] = assay: Cortical neuron survival assay against kainate excitotoxicity (LDH); assay type: cell-based, Sprague-Dawley rats; details: kainate 5-500 μM 20 min; for protection from kainate-induced excitotoxicity (LDH release): 30 μM 24 hrs
# Protocol: Cortical neurons were prepared from embryonic day 18 Sprague-Dawley rats. After the cortices had been removed from the brain, isolated cells were plated onto Poly d-Lysine (PDL) (P0899, Sigma)-coated 48 well plates (150687, NUNC) at a density of 2×10^5 cell per well using Neurobasal Medium (NB) (21103-049, Gibco) with B27 supplement (17504-044, Gibco), penicillin/streptomycin (15140, Gibco) and 1 mM L-glutamine (25030, Gibco). The cell culture was incubated at 37° C. in a humidified atmosphere of 5% CO2 in air. Medium was changed to growth medium (Neurobasal Medium with penicillin/streptomycin and B27 supplement) after 3 hours. Half medium was changed with growth medium every 2-3 days to maintain the cells until day 10 in vitro (DIV 10). Serial dilutions of samples were prepared in growth medium and DMSO was used as vehicle control. For pre-treating assay, half of the medium was removed from wells, and equal amount of diluted samples were replaced. Cells were then incubated for 2 hours at 37° C. in a humidified atmosphere of 5% CO2 in air. Culture was subsequently rinsed with Locke's solution (5 mM potassium chloride, 128 mM sodium chloride, 2.7 mM calcium chloride, 1 mM di-sodium hydrogen orthophosphate, 5 mM HEPES and 10 mM Glucose in Milli-Q water), then incubated with Locke's solution in the presence of glycine (10 μM) for 15 minutes before […] treatment. Kainate dissolved in Locke's plus glycine solution was then substituted and incubated for 20 minutes at 37° C. […] Afterwards, cells were incubated in growth medium for 18-24 hours and detected with Cytotoxicity Detection Kit (1644793, Roche). […]
# FIG. 5 illustrates that DA001 protects neurons against differing concentrations of kainate. […] LDH release into the medium was then measured.
# Cortical neurons were treated with DA021 or DA034 and subsequently subjected to varying concentrations of kainate. […] LDH release into the medium was then measured.
Compound,cell death (LDH release) vs DMSO control (cortical neurons [1]),protection from kainate-induced excitotoxicity (LDH release) (cortical neurons [2]),"cell death (LDH release) vs DMSO control (cortical neurons [2]; 40 μM 24 hrs, at high concentrations of kainate)"
C=C(C)[C@@H]1CC[C@]2(/C=N/O)CC[C@]3(C)C(CCC4[C@@]5(C)CCC(=O)[C@@](C)(CO)[C@@H]5CC[C@]43C)C12 (some centres unmarked) [DA021],significant reduction in cell death,protect neurons against differing concentrations of Kainate,–
CC(=O)OC[C@]12CC[C@@H](C3(C)CO3)C1C1CCC3[C@@]4(C)CC[C@H](O)[C@@](C)(CO)[C@@H]4CC[C@@]3(C)[C@]1(C)CC2 (some centres unmarked) [DA034],significant reduction in cell death,protect neurons against differing concentrations of Kainate,–
"C=C(C)[C@@H]1CC[C@]2(C(=O)O)CC[C@]3(C)C(CC[C@@H]4[C@@]5(C)CC[C@H](O[C@@H]6OC[C@H](O)[C@H](O)[C@H]6O[C@@H]6O[C@@H](C)[C@H](O)[C@@H](O)[C@H]6O)[C@@](C)(CO)[C@@H]5CC[C@]43C)[C@@H]12 (stereo partly drawn) [DA001, 3-O-[α-L-rhamnopyranosyl-(1→2)-α-L-arabinopyranosyl]-3,23-dihydroxy-20(29)-lupen-28-oic acid]",–,–,significant reduction in cell death

# — US9029414B2, “Triterpenoid compounds and methods of use thereof” (Biotechnology Research Corporation, priority 2008, dated 2015)
